Results: patent publication US20190265319A1, “SYSTEM AND METHOD FOR SMALL MOLECULE ACCURATE RECOGNITION TECHNOLOGY ("SMART")” (THE REGENTS OF THE UNIVERSITY OF CALIFORNIA, priority 2016, published 2019)
Peptide text beside a SMILES is read from it.

System: H-460 human lung cancer cells
Assay type: cell-based
Conditions: for IC50: H-460 human lung cancer cells

Molecule	H-460 cytotoxicity	IC50
C#CCCC[C@@H]1OC(=O)[C@H](C(C)C)NC(=O)[C@H](C)N(C)C(=O)[C@@H]2CCCN2C(=O)[C@H](Cc2ccccc2)OC(=O)[C@H](C(C)C)N(C)C(=O)[C@H](C(C)C)NC(=O)C1(C)C [viequeamide B] (HELM PEPTIDE1{V.[meV].[O=C([C@H](Cc1ccccc1)O[*:1])[*:2]].P.[meA].V}|CHEM1{[C#CCCC[C@H](O[*:2])C(C)(C)C(=O)[*:1]]}$PEPTIDE1,CHEM1,1:R1-1:R1|PEPTIDE1,CHEM1,6:R2-1:R2$$$V2.0)	no appreciable H-460 cytotoxicity	
viequeamide X	no appreciable H-460 cytotoxicity	
C=CCCC[C@@H]1OC(=O)[C@H](C(C)C)NC(=O)[C@H](C)N(C)C(=O)[C@@H]2CCCN2C(=O)[C@H](Cc2ccccc2)OC(=O)[C@H](C(C)C)N(C)C(=O)[C@H](C(C)C)NC(=O)C1(C)C [viequeamide C] (HELM PEPTIDE1{V.[meV].[O=C([C@H](Cc1ccccc1)O[*:1])[*:2]].P.[meA].V}|CHEM1{[C=CCCC[C@H](O[*:2])C(C)(C)C(=O)[*:1]]}$PEPTIDE1,CHEM1,1:R1-1:R1|PEPTIDE1,CHEM1,6:R2-1:R2$$$V2.0)	no appreciable H-460 cytotoxicity	
viequeamide A2		620 nM
viequeamide G	no appreciable H-460 cytotoxicity	
viequeamide A3		1980 nM
viequeamide H	no appreciable H-460 cytotoxicity	
CCCCC[C@@H]1OC(=O)[C@H](C(C)C)NC(=O)[C@H](C)N(C)C(=O)[C@@H]2CCCN2C(=O)[C@H](Cc2ccccc2)OC(=O)[C@H](C(C)C)N(C)C(=O)[C@H](C(C)C)NC(=O)C1(C)C [viequeamide D] (HELM PEPTIDE1{V.[meV].[O=C([C@H](Cc1ccccc1)O[*:1])[*:2]].P.[meA].V}|CHEM1{[CCCCC[C@H](O[*:2])C(C)(C)C(=O)[*:1]]}$PEPTIDE1,CHEM1,1:R1-1:R1|PEPTIDE1,CHEM1,6:R2-1:R2$$$V2.0)	no appreciable H-460 cytotoxicity	
